Assay results published in patent US9737535B2, “Methods for treating cancer using TOR kinase inhibitor combination therapy comprising administering substituted pyrazino[2,3-b]pyrazines” (Signal Pharmaceuticals, LLC, priority 2014, dated 2017).

tested on: MDA-MB-436; assay: Anti-proliferation assay (ATPLite), Chalice synergy score; type: cell-based; settings: Compound 1 in combination with second active agent, mean self-cross + 2σ threshold 1.91
Text: (§1) Cells were thawed from a liquid nitrogen preserved state.
(§2) The calculation for synergy score is provided below.
(§3) If T≧V0:100*[1−(T−V0)/(V−V0)]

SMILES | Synergy score
O=C(NOC[C@H](O)CO)c1ccc(F)c(F)c1Nc1ccc(I)cc1F [PD0325901] | 4.20
COCCn1c2c([n+](Cc3cnccn3)c1C)C(=O)c1ccccc1C2=O [YM155] | 2.79
CN(C)CC[C@H](CSc1ccccc1)Nc1ccc(S(=O)(=O)NC(=O)c2ccc(N3CCN(Cc4ccccc4-c4ccc(Cl)cc4)CC3)cc2)cc1[N+](=O)[O-] [ABT-737] | 0.56
COc1c(C)cnc(Cn2cnc3c(Cl)nc(N)nc32)c1C [BIIB021] | 0.33

tested on: HCC-1937; assay: as above; type: cell-based; settings: Compound 1 in combination with the named second active agent, 72 h, mean of n = 3 experiments in triplicate
Text: as §1, §2, §3

SMILES | Synergy score
O=C(NOC[C@H](O)CO)c1ccc(F)c(F)c1Nc1ccc(I)cc1F [PD0325901] | 3.54
COCCn1c2c([n+](Cc3cnccn3)c1C)C(=O)c1ccccc1C2=O [YM155] | 5.70
CN(C)CC[C@H](CSc1ccccc1)Nc1ccc(S(=O)(=O)NC(=O)c2ccc(N3CCN(Cc4ccccc4-c4ccc(Cl)cc4)CC3)cc2)cc1[N+](=O)[O-] [ABT-737] | 5.46
COc1c(C)cnc(Cn2cnc3c(Cl)nc(N)nc32)c1C [BIIB021] | 1.44

tested on: HCC-1428; assay: as above; type: cell-based; settings: Compound 1 in combination with the named second active agent, 72 h, mean of n = 3 experiments in triplicate
Text: as §1, §2, §3

SMILES | Synergy score
O=C(NOC[C@H](O)CO)c1ccc(F)c(F)c1Nc1ccc(I)cc1F [PD0325901] | 4.69
COCCn1c2c([n+](Cc3cnccn3)c1C)C(=O)c1ccccc1C2=O [YM155] | 1.16
CN(C)CC[C@H](CSc1ccccc1)Nc1ccc(S(=O)(=O)NC(=O)c2ccc(N3CCN(Cc4ccccc4-c4ccc(Cl)cc4)CC3)cc2)cc1[N+](=O)[O-] [ABT-737] | 10.60
COc1c(C)cnc(Cn2cnc3c(Cl)nc(N)nc32)c1C [BIIB021] | 4.02

tested on: HCC70; assay: as above; type: cell-based; settings: Compound 1 in combination with second active agent; HCC-70; mean self-cross + 2σ threshold 3.45
Text: as §1, §2, §3

SMILES | Synergy score
O=C(NOC[C@H](O)CO)c1ccc(F)c(F)c1Nc1ccc(I)cc1F [PD0325901] | 14.70
COCCn1c2c([n+](Cc3cnccn3)c1C)C(=O)c1ccccc1C2=O [YM155] | 4.01
CN(C)CC[C@H](CSc1ccccc1)Nc1ccc(S(=O)(=O)NC(=O)c2ccc(N3CCN(Cc4ccccc4-c4ccc(Cl)cc4)CC3)cc2)cc1[N+](=O)[O-] [ABT-737] | 9.10
COc1c(C)cnc(Cn2cnc3c(Cl)nc(N)nc32)c1C [BIIB021] | 9.58

tested on: BT-549; assay: as above; type: cell-based; settings: Compound 1 in combination with the named second active agent, 72 h, mean of n = 3 experiments in triplicate
Text: as §1, §2, §3

SMILES | Synergy score
O=C(NOC[C@H](O)CO)c1ccc(F)c(F)c1Nc1ccc(I)cc1F [PD0325901] | 1.62
COCCn1c2c([n+](Cc3cnccn3)c1C)C(=O)c1ccccc1C2=O [YM155] | 6.80
CN(C)CC[C@H](CSc1ccccc1)Nc1ccc(S(=O)(=O)NC(=O)c2ccc(N3CCN(Cc4ccccc4-c4ccc(Cl)cc4)CC3)cc2)cc1[N+](=O)[O-] [ABT-737] | 6.10
COc1c(C)cnc(Cn2cnc3c(Cl)nc(N)nc32)c1C [BIIB021] | 0.12

tested on: HCC-1806; assay: as above; type: cell-based; settings: Compound 1 in combination with the named second active agent, 72 h, mean of n = 3 experiments in triplicate
Text: as §1, §2, §3

SMILES | Synergy score
O=C(NOC[C@H](O)CO)c1ccc(F)c(F)c1Nc1ccc(I)cc1F [PD0325901] | 3.78
COCCn1c2c([n+](Cc3cnccn3)c1C)C(=O)c1ccccc1C2=O [YM155] | 5.52
CN(C)CC[C@H](CSc1ccccc1)Nc1ccc(S(=O)(=O)NC(=O)c2ccc(N3CCN(Cc4ccccc4-c4ccc(Cl)cc4)CC3)cc2)cc1[N+](=O)[O-] [ABT-737] | 6.15
COc1c(C)cnc(Cn2cnc3c(Cl)nc(N)nc32)c1C [BIIB021] | 1.01

tested on: Hs-578-T; assay: as above; type: cell-based; settings: Compound 1 in combination with second active agent, mean self-cross + 2σ threshold 4.09
Text: as §1, §2, §3

SMILES | Synergy score
O=C(NOC[C@H](O)CO)c1ccc(F)c(F)c1Nc1ccc(I)cc1F [PD0325901] | 3.88
COCCn1c2c([n+](Cc3cnccn3)c1C)C(=O)c1ccccc1C2=O [YM155] | 3.36
CN(C)CC[C@H](CSc1ccccc1)Nc1ccc(S(=O)(=O)NC(=O)c2ccc(N3CCN(Cc4ccccc4-c4ccc(Cl)cc4)CC3)cc2)cc1[N+](=O)[O-] [ABT-737] | 10.00
COc1c(C)cnc(Cn2cnc3c(Cl)nc(N)nc32)c1C [BIIB021] | 1.19

tested on: MDA-MB-157; assay: as above; type: cell-based; settings: Compound 1 in combination with second active agent, mean self-cross + 2σ threshold 4.68
Text: as §1, §2, §3

SMILES | Synergy score
O=C(NOC[C@H](O)CO)c1ccc(F)c(F)c1Nc1ccc(I)cc1F [PD0325901] | 8.05
COCCn1c2c([n+](Cc3cnccn3)c1C)C(=O)c1ccccc1C2=O [YM155] | 5.42
CN(C)CC[C@H](CSc1ccccc1)Nc1ccc(S(=O)(=O)NC(=O)c2ccc(N3CCN(Cc4ccccc4-c4ccc(Cl)cc4)CC3)cc2)cc1[N+](=O)[O-] [ABT-737] | 4.46
COc1c(C)cnc(Cn2cnc3c(Cl)nc(N)nc32)c1C [BIIB021] | 3.94

tested on: MDA-MB-468; assay: as above; type: cell-based; settings: Compound 1 in combination with second active agent, mean self-cross + 2σ threshold 4.66
Text: as §1, §2, §3

SMILES | Synergy score
O=C(NOC[C@H](O)CO)c1ccc(F)c(F)c1Nc1ccc(I)cc1F [PD0325901] | 5.84
COCCn1c2c([n+](Cc3cnccn3)c1C)C(=O)c1ccccc1C2=O [YM155] | 0.24
CN(C)CC[C@H](CSc1ccccc1)Nc1ccc(S(=O)(=O)NC(=O)c2ccc(N3CCN(Cc4ccccc4-c4ccc(Cl)cc4)CC3)cc2)cc1[N+](=O)[O-] [ABT-737] | 8.29
COc1c(C)cnc(Cn2cnc3c(Cl)nc(N)nc32)c1C [BIIB021] | 5.46

tested on: MCF7; assay: as above; type: cell-based; settings: Compound 1 in combination with second active agent, mean self-cross + 2σ threshold 3.07
Text: as §1, §2, §3

SMILES | Synergy score
O=C(NOC[C@H](O)CO)c1ccc(F)c(F)c1Nc1ccc(I)cc1F [PD0325901] | 4.62
COCCn1c2c([n+](Cc3cnccn3)c1C)C(=O)c1ccccc1C2=O [YM155] | 1.77
CN(C)CC[C@H](CSc1ccccc1)Nc1ccc(S(=O)(=O)NC(=O)c2ccc(N3CCN(Cc4ccccc4-c4ccc(Cl)cc4)CC3)cc2)cc1[N+](=O)[O-] [ABT-737] | 6.97
COc1c(C)cnc(Cn2cnc3c(Cl)nc(N)nc32)c1C [BIIB021] | 0.15

tested on: BT-474; assay: as above; type: cell-based; settings: Compound 1 in combination with the named second active agent, 72 h, mean of n = 3 experiments in triplicate
Text: as §1, §2, §3

SMILES | Synergy score
O=C(NOC[C@H](O)CO)c1ccc(F)c(F)c1Nc1ccc(I)cc1F [PD0325901] | 1.50
COCCn1c2c([n+](Cc3cnccn3)c1C)C(=O)c1ccccc1C2=O [YM155] | 4.04
CN(C)CC[C@H](CSc1ccccc1)Nc1ccc(S(=O)(=O)NC(=O)c2ccc(N3CCN(Cc4ccccc4-c4ccc(Cl)cc4)CC3)cc2)cc1[N+](=O)[O-] [ABT-737] | 4.14
COc1c(C)cnc(Cn2cnc3c(Cl)nc(N)nc32)c1C [BIIB021] | 2.83

tested on: MDA-MB-231; assay: as above; type: cell-based; settings: Compound 1 in combination with second active agent, mean self-cross + 2σ threshold 2.61
Text: as §1, §2, §3

SMILES | Synergy score
O=C(NOC[C@H](O)CO)c1ccc(F)c(F)c1Nc1ccc(I)cc1F [PD0325901] | 9.62
COCCn1c2c([n+](Cc3cnccn3)c1C)C(=O)c1ccccc1C2=O [YM155] | 2.54
CN(C)CC[C@H](CSc1ccccc1)Nc1ccc(S(=O)(=O)NC(=O)c2ccc(N3CCN(Cc4ccccc4-c4ccc(Cl)cc4)CC3)cc2)cc1[N+](=O)[O-] [ABT-737] | 10.00
COc1c(C)cnc(Cn2cnc3c(Cl)nc(N)nc32)c1C [BIIB021] | 1.22

tested on: BT-20; assay: as above; type: cell-based; parameters: scale not given here; settings: Compound 1 in combination with the named second active agent, 72 h, mean of n = 3 experiments in triplicate
Text: as §1, §2, §3

SMILES | Synergy score
O=C(NOC[C@H](O)CO)c1ccc(F)c(F)c1Nc1ccc(I)cc1F [PD0325901] | 6.34
COCCn1c2c([n+](Cc3cnccn3)c1C)C(=O)c1ccccc1C2=O [YM155] | 2.67
CN(C)CC[C@H](CSc1ccccc1)Nc1ccc(S(=O)(=O)NC(=O)c2ccc(N3CCN(Cc4ccccc4-c4ccc(Cl)cc4)CC3)cc2)cc1[N+](=O)[O-] [ABT-737] | 7.28
COc1c(C)cnc(Cn2cnc3c(Cl)nc(N)nc32)c1C [BIIB021] | 3.71

tested on: HCC-1187; assay: as above; type: cell-based; parameters: scale not given here; settings: Compound 1 in combination with the named second active agent, 72 h, mean of n = 3 experiments in triplicate
Text: as §1, §2, §3

SMILES | Synergy score
O=C(NOC[C@H](O)CO)c1ccc(F)c(F)c1Nc1ccc(I)cc1F [PD0325901] | 7.89
COCCn1c2c([n+](Cc3cnccn3)c1C)C(=O)c1ccccc1C2=O [YM155] | 4.94
CN(C)CC[C@H](CSc1ccccc1)Nc1ccc(S(=O)(=O)NC(=O)c2ccc(N3CCN(Cc4ccccc4-c4ccc(Cl)cc4)CC3)cc2)cc1[N+](=O)[O-] [ABT-737] | 8.77
COc1c(C)cnc(Cn2cnc3c(Cl)nc(N)nc32)c1C [BIIB021] | 0.45

tested on: HCC-1500; assay: as above; type: cell-based; parameters: scale not given here; settings: Compound 1 in combination with the named second active agent, 72 h, mean of n = 3 experiments in triplicate
Text: as §1, §2, §3

SMILES | Synergy score
O=C(NOC[C@H](O)CO)c1ccc(F)c(F)c1Nc1ccc(I)cc1F [PD0325901] | 3.58
COCCn1c2c([n+](Cc3cnccn3)c1C)C(=O)c1ccccc1C2=O [YM155] | 2.81
CN(C)CC[C@H](CSc1ccccc1)Nc1ccc(S(=O)(=O)NC(=O)c2ccc(N3CCN(Cc4ccccc4-c4ccc(Cl)cc4)CC3)cc2)cc1[N+](=O)[O-] [ABT-737] | 4.23
COc1c(C)cnc(Cn2cnc3c(Cl)nc(N)nc32)c1C [BIIB021] | 1.11
